Experimental data reported in patent US11103432B2, “Use of 1,3 diglyceride in a topical composition for countering the weakening of the skin barrier” (PIERRE FABRE DERMO-COSMETIQUE, priority 2015, dated 2021).
“And” between values parts separate entries of the source, which are not always exact repeats. Identical values can stand only once. Like-named read-outs stand apart in the source and are kept apart here.

Legend:
[1] = ATR-FTIR of lipids extracted from forearm stratum corneum with added diglyceride (vCH2 vibration); type: physicochemical; settings: 40° C., 3 μg of diglyceride for 30 μg of sample; for influence on the organisation of the intercorneocytory lipids (vCH2, FIG. 2): versus extract devoid of diglyceride
Excerpt: In order to evaluate the change in the organisation of the lipid phases of the stratum corneum, the inventors used infrared spectroscopy (ATR-FTIR: Attenuated total reflectance—Fourier transform infrared Spectroscopy) to analyse the variation, under the effect of the temperature, of the fundamental vibration bands of the vCH2 aliphatic chains of these lipids. More particularly, the position of the absorption band, corresponding to the stretching of the CH2, is located around wave number 2848 cm^−1. By way of example, an increase in the temperature of the surface of the skin causes a displacement of this bands to the higher wave numbers.
The study was carried out on lipids extracted from the stratum corneum of the forearm in order to have a model as close as possible to reality. We have used infrared spectroscopy (ATR-FTIR), to examine the variation, in function of temperature, of fundamental vCH2 vibration bands of aliphatic chains.
The tests were carried out in similar experimental conditions using lipids extracts from the forearm wherein a standardized quantity of diglyceride is added (3 μg of diglyceride for 30 μg of sample).
The test of the example 2 was reproduced with 1,2-distearoyl-rac-glycerol (1,2 diglyceride) and compared to the test carried out with glyceryl 1,3-distearate (1,3 diglyceride).

[2] = test system: intercorneocytory lipids of the skin; experiment: In vivo ATR-FTIR on the inner forearm of healthy volunteers after application of glyceryl 1,3-distearate; design: species or system human; settings: for Δ νCH2, Average / Δ νCH2, single subjects: 40° C., versus control zone
Procedure: This study was carried out on health volunteers. The collection of infrared data was done through the intermediary of the ATR-FTIR sensor on the inner face of the forearm on a zone of 10 cm^2.
A treated zone (with application in vivo of glyceryl 1,3 distearate) and a control zone (without application of glyceryl 1,3 distearate) were determined.
Two concentrations in glyceryl 1,3-distearate were evaluated (table 2: 0.5 mg/cm^2 and table 3: 0.15 mg/cm^2).
At T0: the skin is first heated to between 30 and 45° C.
Then after application in vivo of glyceryl 1,3-distearate on the treated zone, an evaluation is made of the variation in the wave number associated with the vCH2 vibration comparatively to the reference measurement without product applied (control zone) at different times after T0: T 30 minutes, T 1 h30 minutes and T 4 hours.
Tables 2 and 3: express the variation of the wave number associated with the vCH2 vibration of the aliphatic chains of the intercorneocytory lipids at 40° C. in the presence of glyceryl 1,3-distearate comparatively to the reference measurement without glyceryl 1,3-distearate.

[3] = test system: stratum corneum lipids of human skin explants; experiment: FTIR measurement of human skin explants with or without pre-treatment (position of CH2 symmetric stretching band)
Procedure: The skin samples were heated at the rate of 1° C./min, and spectra were collected between 28° C. and 43° C.
Lipids organization—FTIR measurement: After 30 min of pre-treatment, FTIR measurements were performed to evaluate the molecular organization of the lipid matrix in the stratum corneum. The procedure is based on the study of the position of the CH2 symmetric stretching band, around 2850 cm^−1, depending on the temperature: the skin samples were heated at the rate of 1° C./min and spectra were collected between 28° C. and 43° C. with and without pre-treatment. The position of the CH2 symmetric stretching band is characteristic of the lipid organization and can be related to the barrier function.
FTIR measurement of skin explant (position of CH2 symmetric stretching band) depending on the temperature;
FTIR measurements were performed on human skin explants (8 donors) with or without pre-treatment. The skin samples were heated at the rate of 1° C./min, and spectra were collected between 28° C. and 43° C.

Human skin = experiment: Benzo[a]pyrene skin penetration study, Franz diffusion cell; type: in vitro ADME; settings: for B(a)P at Surface, percentage of the applied dose (Mean) / B(a)P in Receptor fluid, percentage of the applied dose (Mean) / B(a)P in Skin, percentage of the applied dose (Mean) / B(a)P in Stratum corneum, percentage of the applied dose (Mean): n = 8
Procedure: (§1) In order to evaluate the impact of 1,3-diglycerides on the organization of stratum corneum lipids and barrier function, in vitro, skin penetration studies of a known pollutant (benzo[a]pyrene (B(a)P) has been developed and performed. On the same donors, FTIR (Fourier transform infrared) measurement and B(a)P skin penetration were assessed to link lipid organization and the “outside-in” skin barrier function modulations, when the skin is heated up to 42° C.
(§2) Secondly, the impact of pre-treatment with 3% and 15% of glyceryl 1,3 distearate formulated in dimethicone on the modification of the SC (stratum corneum) lipid organization and B(a)P skin penetration provoked by the temperature elevation has been evaluated.
(§3) • OECD Guidelines for the testing of chemicals: guideline 428, skin absorption: in vitro method (13 Apr. 2004); • SCCS Guidelines, basic criteria for the in-vitro assessment of dermal absorption of cosmetics ingredients, updated March 2006.
(§4) For the skin delivery study, two temperatures were set. The classical temperature at the surface of the skin for skin delivery studies is 32° C. This temperature corresponds to the temperature at the surface of the skin in vivo. […]
(§5) The skin penetration study was carried out on 8 donors, the same donor was used for all the conditions:
(§6) The study was carried out on 8 donors, the same donor was used for all the conditions. B(a)P recovery should be comprised between 85% and 115% of the applied dose, in accordance with OECD 428 and SCCS guidelines.
(§7) • % of the applied dose at surface, stratum corneum, skin and receptor fluid; • μg/cm^2 of B(a)P at surface, stratum corneum, skin and receptor fluid. Results were presented with 2 decimals for the percentages and the quantities in μg/cm^2. Formula used in this report: • Standard error of the mean: • sem=Sd/√n • Bioavailability:
(§8) Sum of the quantities found in the skin and receptor fluid.
(§9) The inter-group comparison was performed by a paired Student's t-test with Graph Pad Prism software. The statistical analysis can be interpreted if n>5.

[4] = as above; type: in vitro ADME, human; settings: human, without pre-treatment, 24 h, read-out: bioavailability (skin + receptor fluid) of benzo[a]pyrene, % of the dose applied to the skin
Procedure: as §1, §2, §3, §4, §5, §6, §7, §8, §9

[5] = 0.15 mg/cm^2 (table title), 30 min
[6] = 0.15 mg/cm^2 (table title), 1 h 30
[7] = 0.15 mg/cm^2 (table title), 4 h
[8] = 3% pre-treatment in dimethicone, 32° C., 24 h
[9] = 3% pre-treatment in dimethicone, 42° C., 24 h
[10] = 15% pre-treatment in dimethicone, 32° C., 24 h
[11] = 15% pre-treatment in dimethicone, 42° C., 24 h

In the case of `CCCCCCCCCCCC(=O)OCC(O)COC(=O)CCCCCCCCCCC` [1,3-dilauroylglycerol], the “influence on the organisation of the intercorneocytory lipids (vCH2, FIG. 2)” value [1] was “no influence”.
In the case of `CCCCCCCCCCCCCCCCCC(=O)OCC(O)COC(=O)CCCCCCCCCCCCCCCCC` [glyceryl 1,3-distearate], the “Δ νCH2, Average” value [2, 5] was -2.02 cm⁻¹, the “Δ νCH2, single subjects” value [2, 5] was -1.87 cm⁻¹ and -2.16 cm⁻¹ and the “Δ νCH2, Average” value [2, 6] was -2.08 cm⁻¹. For the same molecule, the “Δ νCH2, single subjects” value [2, 6] was -1.91 cm⁻¹ and -2.25 cm⁻¹, the “Δ νCH2, Average” value [2, 7] was -1.89 cm⁻¹ and the “Δ νCH2, single subjects” value [2, 7] was -1.64 cm⁻¹ and -2.15 cm⁻¹. The “Δ νCH2, Average” value ([2]; 0.5 mg/cm^2, 30 min) was -2.46 cm⁻¹, the “Δ νCH2, single subjects” value ([2]; 0.5 mg/cm^2, 30 min) was -2.56 cm⁻¹ and -3.02 cm⁻¹ and -2.71 cm⁻¹ and the “Δ νCH2, Average” value ([2]; 0.5 mg/cm^2, 1 h 30) was -2.41 cm⁻¹. For the same molecule, the “Δ νCH2, single subjects” value ([2]; 0.5 mg/cm^2, 1 h 30) was -2.65 cm⁻¹ and -2.62 cm⁻¹ and -2.6 cm⁻¹, the “Δ νCH2, Average” value ([2]; 0.5 mg/cm^2, 4 h) was -2.17 cm⁻¹ and the “Δ νCH2, single subjects” value ([2]; 0.5 mg/cm^2, 4 h) was -2.6 cm⁻¹ and -2.29 cm⁻¹ and -2.18 cm⁻¹. The “persistence of the stabilising effect after application” value ([2]; skin heated between 30 and 45° C.) was “at least 4 hours”, the “organisation of the intercorneocytory spaces of the skin” value ([2]; skin heated between 30 and 45° C., normal conditions of use) was “stabilise the organisation of the intercorneocytory spaces” and the “Δ νCH2: variation in the wave number of the νCH2 vibration of the aliphatic chains of the intercorneocytory lipids, with or without diglyceride” value [1] was -1.43 cm⁻¹. The “position of the CH2 symmetric stretching band” value ([3]; 3% in dimethicone as pre-treatment, 30 min, 43° C., basal 2852.12) was 2848.7 cm⁻¹, the “shift of the CH2 symmetric stretching band induced by the heating of the skin” value ([3]; 3% pre-treatment, 28° C. to 43° C., 0.81 without pre-treatment) was 0.05 cm⁻¹ and the “impact of the heating on the lipid organization” value ([3]; pre-treatment with 3% or 15%, T tests, p value<0.05) was “decrease significantly”. The “B(a)P at Surface, percentage of the applied dose (Mean)” value (from here on “B(a)P at Surface, percentage”) (Human skin; [8]) was 94.66%, the “B(a)P in Receptor fluid, percentage of the applied dose (Mean)” value (shortened to “B(a)P in Receptor fluid, percentage”) (Human skin; [8]) was 0.05% and the “B(a)P in Skin, percentage of the applied dose (Mean)” value (shortened to “B(a)P in Skin, percentage”) (Human skin; [8]) was 2.09%. The “B(a)P in Stratum corneum, percentage of the applied dose (Mean)” value (“B(a)P in Stratum corneum, percentage” for short) (Human skin; [8]) was 0.82%, the “B(a)P at Surface, percentage” value (Human skin; [9]) was 90.39% and the “B(a)P in Receptor fluid, percentage” value (Human skin; [9]) was 0.17%. For the same molecule, the “B(a)P in Skin, percentage” value (Human skin; [9]) was 5.18%, the “B(a)P in Stratum corneum, percentage” value (Human skin; [9]) was 0.90% and the “B(a)P at Surface, percentage” value (Human skin; [10]) was 94.99%. The “B(a)P in Receptor fluid, percentage” value (Human skin; [10]) was 0.04%, the “B(a)P in Skin, percentage” value (Human skin; [10]) was 1.87% and the “B(a)P in Stratum corneum, percentage” value (Human skin; [10]) was 0.77%. For the same molecule, the “B(a)P at Surface, percentage” value (Human skin; [11]) was 92.68%, the “B(a)P in Receptor fluid, percentage” value (Human skin; [11]) was 0.15% and the “B(a)P in Skin, percentage” value (Human skin; [11]) was 4.40%. The “B(a)P in Stratum corneum, percentage” value (Human skin; [11]) was 0.75% and the “penetration of benzo[a]pyrene compared to the basal state and the vehicle” value (Human skin; dose of 3% or 15%, skin maintained in an atmosphere at 42° C.) was “significant decrease”.
For `CCCCCCCCCCCCCCCCCC(=O)OCC(CO)OC(=O)CCCCCCCCCCCCCCCCC` (racemic) [1,2-distearoyl-rac-glycerol], the “Δ νCH2: variation in the wave number of the νCH2 vibration of the aliphatic chains of the intercorneocytory lipids, with or without diglyceride” value [1] was -0.65 cm⁻¹.
For `CCCCCCCCCC(=O)OCC(O)COC(=O)CCCCCCCCC` [1,3-dicaprin], the “influence on the organisation of the intercorneocytory lipids (vCH2, FIG. 2)” value [1] was “no influence”.
With `c1ccc2c(c1)cc1ccc3cccc4ccc2c1c34` [B(a)P, benzo[a]pyrene, reference compound] the bioavailability at 24 h ([4]; skin temperature 32° C.) was at most 2.95%, the bioavailability at 24 h ([4]; skin temperature 42° C.) was 6.95% and the “B(a)P concentration in the receptor fluid corresponding to the worst case” value (Human skin; human) was 12.51 µg/L. For the same molecule, the “percentage of B(a)P found in the receptor fluid, worst case” value (Human skin; human) was 0.13 % of the applied dose, the “B(a)P recovered at the surface, % of the applied dose” value (Human skin; human, 24 h) was “up to 94.5%” and the “bioavailability (skin + receptor fluid) of benzo[a]pyrene, % of the dose applied to the skin” value (Human skin; without pre-treatment, skin temperature 32° C., 24 h) was 2.95%.
